From US4588526A, “Bronchodilatory azepino(1,2-A)pyrimidine derivatives and acid addition salts thereof and bronchodilating pharmaceutical compositions containing same” (Chinoin Gyogyszer es Vegyeszeti Termekek Gyara Rt, priority 1982, dated 1986)
Blank lines part the entries; values can stand above or below the compound they belong to.

Legend:
[1] = system: spasm induced by histamine; experiment: Konzett test, inhibition of spasm induced by histamine; assay type: in vivo, guinea-pigs; conditions: guinea-pig Konzett test; for ED50: Cavia porcellus, read-out: ID50 spasm inhibition induced by histamine
Experimental: (§1) The activity was determined on the basis of inhibition of spasm induced by three endogenic spasmogenic agents (5-hydroxy-tryptamine histamine, acetyloholine).

[2] = system: spasm induced by acetylcholine; experiment: Konzett test, inhibition of spasm induced by acetylcholine; assay type: in vivo, guinea-pigs; conditions: guinea-pig Konzett test; for ED50: Cavia porcellus, read-out: ID50 spasm inhibition induced by acetylcholine
Experimental: as §1

[3] = system: spasm induced by 5-hydroxy-tryptamine; experiment: Konzett test, inhibition of spasm induced by 5-hydroxy-tryptamine; assay type: in vivo, guinea-pigs; conditions: guinea-pig Konzett test; for ED50: Cavia porcellus, read-out: ID50 spasm inhibition induced by 5-hydroxy-tryptamine
Experimental: as §1

[4] = system: human bronchus; experiment: Human bronchus test, inhibition of Carbacol-induced contraction; conditions: contraction by 1 μmole Carbacol, 37 C; for IC50: amount for 50% inhibition
Source text: As a further Example the activity of the compound of the formula IX is illustrated by human bronchus test. Human bronchus obtained surgically was dipped into an oxygenized physiological solution of 37 C. The contraction is induced by 1 μmole Carbacol.

[5] = system: spasm induced by three endogenic spasmogenic agents; experiment: Konzett test, duration of activity and comparison with known compounds; assay type: in vivo, guinea-pigs; conditions: guinea-pig Konzett test; marks all three ID50 values
Experimental: The activity of the compounds of the invention was examined by Konzett test (Konzett H. and, Rossler R., Arch. Exp. Path. Pharm., 1940, 195 71) using guinea-pigs. The activity was determined on the basis of inhibition of spasm induced by three endogenic spasmogenic agents (5-hydroxy-tryptamine histamine, acetyloholine).

[6] = Drugs of the Future 1981, 6, 362; cited from earlier work

Compound: O=c1c2c(nc3n1CCCCC3)CCCC2 [drawing 10]
- ID50 spasm inhibition induced by histamine [1]: 5.4 µmol/kg
- ID50 spasm inhibition induced by acetylcholine [2]: 6.3 µmol/kg
- ID50 spasm inhibition induced by 5-hydroxy-tryptamine [3]: 15.7 µmol/kg

Compound: theophilline anisate [reference compound]
- ID50 spasm inhibition induced by histamine [1]: 14.0 µmol/kg
- ID50 spasm inhibition induced by acetylcholine [2]: 22.0 µmol/kg
- ID50 spasm inhibition induced by 5-hydroxy-tryptamine [3]: 14.0 µmol/kg
- IC50 [4]: 150 µM
- spasm reduction ([4]; dosage 10^-3.75 mole/1, 177.8 µM): 64%
- spasm reduction ([4]; dosage 10^-4 (10^-4.0) mole/1, 100 µM): 28%
- spasm reduction ([4]; dosage 10^-4.25 mole/1, 56.23 µM): 10%
- spasm reduction ([4]; dosage 10^-4.5 mole/1, 31.62 µM): 5%

Compound: O=c1c2c(nc3n1CCCCC3)CCCC2 [drawing 9]
- ED50 [1]: 3.1 µmol/kg
- ED50 [2]: 7.8 µmol/kg
- ID50 spasm inhibition induced by 5-hydroxy-tryptamine [3]: 3.0 µmol/kg
- duration of activity (footnote x) [5]: long-lasting activity

- IC50 ([4]; Homo sapiens): 5.4 µM
Compound: O=c1c2c(nc3n1CCCCC3)CCCC2 [IX]
- inhibition at 100 µM ([4]; Homo sapiens, dosage 10^-4 (10^-4.0) mole/1, read-out: spasm reduction): 184%
- inhibition at 31.62 µM ([4]; Homo sapiens, dosage 10^-4.5 mole/1, read-out: spasm reduction): 113%
- inhibition at 10 µM ([4]; Homo sapiens, dosage 10^-5.0 mole/1, read-out: spasm reduction): 48%
- inhibition at 3.162 µM ([4]; Homo sapiens, dosage 10^-5.5 mole/1, read-out: spasm reduction): 23%
- inhibition at 1 µM ([4]; Homo sapiens, dosage 10^-6.0 mole/1, read-out: spasm reduction): 3%

Compound: O=c1c2ccccc2nc2n1CCCCC2 [drawing 12, reference compound]
- ED50 [1]: 6.2 µmol/kg
- ED50 [2]: 26.3 µmol/kg
- ED50 [3]: 36 µmol/kg

Compound: O=c1c2ccccc2nc2n1CCCCC2 [6,7,8,9,10,12-hexahydroazepino[2,1-b]quinazoline-12-one]
- bronchodilatory activity [6]: displays bronchodilatory activity

Compound: O=c1c2c(nc3n1CCCCC3)CCC2
- ED50 [1]: 6.5 µmol/kg
- ED50 [2]: 3.7 µmol/kg
- ED50 [3]: 13.8 µmol/kg
